Patent US3954778A, “Aminoacetyl derivatives of 2,3-diphenyl cyclopropyl amine” (priority 1970, dated 1976)
Structures can show the parent of a compound that is named as a salt. Where two headings read alike, the source gives them in different places.

Columns and labels:
male albine Swiss mice [1] = assay: Shock by cardiazol (M.M.S.); type: in vivo; conditions: for ED50: Mus musculus
Protocol: (§1) Materials and methods. The animals used to perform the pharmacological tests with the compounds of the invention have been, unless the contrary is explicitly indicated, male albine Swiss mice weighing 19-23 g; each animal has been used only once.
(§2) The compounds have been administered as hydrochlorides, under skin (0.1 ml/10 g) 30 minutes ante; for determining the LD50, the compounds have been administered by intraperitoneal route and were considered deaths occured in the 72 hours following the treatment.
(§3) As reference compounds there was used: ethosuximide injected under skin 30 minutes ante (before); Phenurone per os 60 minutes ante; phenobarbital sodium salt under skin 30 minutes ante, trimethadione under skin 30 minutes ante; primidone per os 6 hours ante and Mephenesin under skin 30 minutes ante.
Under such conditions the results obtained with the reference compounds are in good agreement with those reported in the art for the same compounds (E. A. Swinyard, W. C. Brown, L. S. Goodman --J. Pharmacol., 1952, 106, 3 19). Shock by cardiazol (M.M.S.) -- 38 mg/kg of cardiazol, in the form of a 0.38% aqueous solution, is quickly injected in the dorsal vein of the mouse's tail (L. S. Goodman, M. Singh Grewal, W. C. Brown, E. A. Swinyard -- J. Pharmacol. 1953, 108, 168). The animals are considered as protected when the extensor phase of the hind paws is eliminated during the tonic crisis.
(§4) The so-obtained data have been elaborated by calculating the ED50 and the LD50 according to Lichtfield-Wilcoxon's method (J. Pharmacol. 1949, 96, 99).

male albine Swiss mice [2] = assay: Electroshock (M.E.S.); type: in vivo; conditions: for ED50: Mus musculus
Protocol: as §1, §2, §3
Electroshock (M.E.S.) -- The method adopted in making the electroshock is Cashin C.
as §4

dog = assay: Protection from adrenaline induced cardiac arrhythmias in dogs; type: in vivo; conditions: 1 mg/kg intravenous
Protocol: (§5) The new compounds of the invention are deprived of MAO-inhibiting activity in live rats, both on the mithocondres of hepatic tissue and on the mithocondres of homogenatous of cerebral tissue, even if administered in doses of 100-200 mg/kg per os. As found also with other anticonvulsive drugs, the new compounds of the present invention are endowed with a good antiarrhythmic activity. In particular the activity in cardiac arrhythmias of N-pyrrolidinoacetyl-2,3-cis, trans-diphenylcyclopropylamine has been studied by experimentally inducing arrhythmias in rats by means of calcium chloride, and in dogs by means of adrenaline.
The experiments with dogs have been performed as follows:
The dog has been anesthetized with chloralose and then administered by intravenous injection with 30 γ/kg of adrenaline. The results were evaluated according to Somani and Lum B. K. B. (J. Pharmacol. Expt. Therap. 1965, 147, 194-202).

rat = assay: Inhibition of calcium chloride induced cardiac arrhythmias in rats; type: in vivo; conditions: for minimal effective dose: read-out: active dose (complete inhibition of cardiac arrhythmias)
Protocol: as §5, with “As found also with other anticonvulsive drugs, the new compounds of the present invention are endowed with a good antiarrhythmic activity.” left out
The experiments in rats have been performed as follows:
There was determined the inhibiting effect of N-pyrrolidine acetyl-2,3-cis,trans-diphenylcyclopropylamine hydrochloride on the cardiac arrhythmias arising within the 5 minutes following the calcium chloride administration in comparison with quinidine, procaine and propranolol.

Acute toxicity LD50 = conditions: mouse, in vivo, ip
Protocol: as §1, §2, §4

[3] = sc, 0.5 h, new compounds (Table 2), as hydrochlorides, under skin 30 minutes ante, cardiazol 38 mg/kg i.v., read-out: ED50 M.M.S.
[4] = sc, 0.5 h, new compounds (Table 2), as hydrochlorides, under skin 30 minutes ante, read-out: ED50 M.E.S.
[5] = sc, 0.5 h, reference compounds (Table 1), under skin 30 minutes ante, cardiazol 38 mg/kg i.v., read-out: M.M.S. ED50
[6] = sc, 0.5 h, read-out: M.M.S. ED50

For “1.1-dimethyl-3-phenyl-urea [Phenurone, reference compound]”, the “M.M.S. ED50” value (male albine Swiss mice [1]; Phenurone (Table 1), per os 60 minutes ante, cardiazol 38 mg/kg i.v.) was 50 mg/kg and the “M.E.S. ED50” value (male albine Swiss mice [2]; Phenurone (Table 1), per os 60 minutes ante) was 115 mg/kg.

For `CC(C)N(CC(=O)NC1[C@H](c2ccccc2)[C@H]1c1ccccc1)C(C)C` (relative stereo) [N-diisopropylaminoacetyl-2,3-cis,trans-diphenylcyclopropylamine], the ED50 (male albine Swiss mice [1]; [3]) was 87 mg/kg and the ED50 (male albine Swiss mice [2]; [4]) was 135 mg/kg.

For `O=C(CN1CCCC1)NC1[C@H](c2ccccc2)[C@H]1c1ccccc1` (relative stereo) [N-pyrrolidinoacetyl-2,3-cis,trans-diphenylcyclopropylamine hydrochloride], the “protection from adrenaline arrhythmia” value (dog; 2 minutes ante adrenaline (30 γ/kg i.v.)) was “completely protected”, the duration of effect (dog; adrenaline arrhythmia) was 60 min and the minimal effective dose (rat; calcium chloride 80 mg/kg i.v., anesthetized rat, drug 90 seconds before calcium chloride) was 2 mg/kg. The duration of activity (rat; rat, calcium chloride arrhythmia, dose 2 mg/kg) was “about 20 minutes”.

`O=C(CN1CCCCC1)NC1[C@H](c2ccccc2)[C@H]1c1ccccc1` (relative stereo) [cis-trans, N-piperidinoacetyl-2,3-cis,trans-diphenylcyclopropylamine hydrochloride] showed an LD50 at 72 h (Acute toxicity LD50) of 88 mg/kg, an ED50 (male albine Swiss mice [1]; [3]) of 6 mg/kg and an ED50 (male albine Swiss mice [2]; [4]) of 14.5 mg/kg.

With `O=C(CN1CCCC1)NC1[C@H](c2ccccc2)[C@H]1c1ccccc1` (relative stereo) [cis-trans, N-pyrrolidinoacetyl-2,3-cis,trans-diphenylcyclopropylamine] the LD50 at 72 h (Acute toxicity LD50) was 67.5 mg/kg, the ED50 (male albine Swiss mice [1]; [3]) was 5.6 mg/kg and the ED50 (male albine Swiss mice [2]; [4]) was 9 mg/kg.

Work on `CCN(CC)CC(=O)NC1[C@H](c2ccccc2)[C@H]1c1ccccc1` (relative stereo) [cis-trans, R1 = C2 H5, R2 = C2 H5, N-dietylaminoacetyl-2,3-cis-trans-diphenylcyclopropylamine] yielded an LD50 at 72 h (Acute toxicity LD50) of 92.5 mg/kg, an ED50 (male albine Swiss mice [1]; [3]) of 12.5 mg/kg and an ED50 (male albine Swiss mice [2]; [4]) of 14.2 mg/kg.

With `CN(C)CC(=O)NC1[C@H](c2ccccc2)[C@H]1c1ccccc1` (relative stereo) [cis-trans, R1 = CH3, R2 = CH3, N-dimethylaminoacetyl-2,3-cis,trans-diphenylcyclopropylamine] the ED50 (male albine Swiss mice [1]; [3]) was 16 mg/kg and the ED50 (male albine Swiss mice [2]; [4]) was 16.5 mg/kg.

`CCNCC(=O)NC1[C@H](c2ccccc2)[C@H]1c1ccccc1` (relative stereo) [cis-trans, R1 = H, R2 = C2 H5, N-ethylaminoacetyl-2,3-cis,trans-diphenylcyclopropylamine hydrochloride] showed an LD50 at 72 h (Acute toxicity LD50) of 85 mg/kg, an ED50 (male albine Swiss mice [1]; [3]) of 13 mg/kg and an ED50 (male albine Swiss mice [2]; [4]) of 16.5 mg/kg.

`CNCC(=O)NC1[C@H](c2ccccc2)[C@H]1c1ccccc1` (relative stereo) [cis-trans, R1 = H, R2 = CH3, N-methylaminoacetyl-2,3-cis,trans-diphenyl-cylcopropylamine hydrochloride] showed an LD50 at 72 h (Acute toxicity LD50) of 112 mg/kg, an ED50 (male albine Swiss mice [1]; [3]) of 30 mg/kg and an ED50 (male albine Swiss mice [2]; [4]) of 25.5 mg/kg.

With `CCCN(CCC)CC(=O)NC1[C@H](c2ccccc2)[C@H]1c1ccccc1` (relative stereo) [cis-trans, R1 = n-C3 H7, R2 = n-C3 H7, di-n-propylaminoacetyl-2,3-cis, trans-diphenylcyclopropylamine hydrochloride] the ED50 (male albine Swiss mice [1]; [3]) was 175 mg/kg and the ED50 (male albine Swiss mice [2]; [4]) was > 100 mg/kg.

For `CCCCN(CCCC)CC(=O)NC1[C@H](c2ccccc2)[C@H]1c1ccccc1` (relative stereo) [cis-trans, R1 = n-C4 H9, R2 = n-C4 H9, N-di-n-butylaminoacetyl-2,3-cis,trans-diphenylcyclopropylamine], the ED50 (male albine Swiss mice [1]; [3]) was > 250 mg/kg and the ED50 (male albine Swiss mice [2]; [4]) was > 250 mg/kg.

For `CCC1(C)CC(=O)NC1=O` (stereo not drawn) [Ethosuximide, reference compound], the ED50 (male albine Swiss mice [1]; [5]) was 50 mg/kg.

Molecule `Cc1ccccc1OCC(O)CO` (stereo not drawn) [Mephenesin, reference compound] has an ED50 (male albine Swiss mice [1]; [5]) of 180 mg/kg.

`O=C1NC(=O)C(c2ccccc2)(c2ccccc2)N1` [Phenitoine Sodium salt, reference compound] gave an ED50 (male albine Swiss mice [1]; iv, Phenitoine sodium salt (Table 1), route and time not stated, cardiazol 38 mg/kg i.v., read-out: M.M.S. ED50) of 7.1 mg/kg and an ED50 (male albine Swiss mice [2]; Phenitoine sodium salt (Table 1), route and time not stated, read-out: M.E.S. ED50) of 15 mg/kg.

`CCC1(c2ccccc2)C(=O)NC(=O)NC1=O` [Phenobarbital sodium salt, reference compound] showed an ED50 (male albine Swiss mice [1]; [6]) of 4.5 mg/kg and an ED50 (male albine Swiss mice [2]; sc, 0.5 h, read-out: M.E.S. ED50) of 35 mg/kg.

In the case of `CCC1(c2ccccc2)C(=O)NCNC1=O` [Primidone, reference compound], the ED50 (male albine Swiss mice [1]; po, Primidone (Table 1), per os 6 hours ante, cardiazol 38 mg/kg i.v., read-out: M.M.S. ED50) is reported as 5.2 mg/kg.

With `CN1C(=O)OC(C)(C)C1=O` [Trimethadione, reference compound] the ED50 (male albine Swiss mice [1]; [6]) was 175 mg/kg.

In the case of `CCN(CC)CCOC(=O)c1ccc(N)cc1` [procaine], the minimal effective dose (rat; Rattus norvegicus) is reported as 5 mg/kg.

With `CC(C)NCC(O)COc1cccc2ccccc12` (stereo not drawn) [propranolol] the minimal effective dose (rat; Rattus norvegicus) was 1 mg/kg.

For `C=C[C@H]1C[N@@]2CC[C@H]1C[C@@H]2[C@@H](O)c1ccnc2ccc(OC)cc12` [quinidine], the minimal effective dose (rat; Rattus norvegicus) was 2.5 mg/kg.

With `O=C(CN1CCCC1)N[C@@H]1[C@@H](c2ccccc2)[C@H]1c1ccccc1` [trans-trans, N-pyrrolidinoacetyl-2,3-trans,trans-diphenylcyclopropylamine hydrochloride] the LD50 at 72 h (Acute toxicity LD50) was 266 mg/kg and the ED50 (male albine Swiss mice [2]; [4]) was 87 mg/kg.
